For 17 molecules, IC50, Ki and Km results are on record in ChEMBL document CHEMBL2074388 (Am J Physiol Renal Physiol, 2001).

For data set [1], the target named is T1, Solute carrier family 22 member 2 (Rattus norvegicus, UniProt Q9R0W2).
T1 sequence (Q9R0W2 whole entry): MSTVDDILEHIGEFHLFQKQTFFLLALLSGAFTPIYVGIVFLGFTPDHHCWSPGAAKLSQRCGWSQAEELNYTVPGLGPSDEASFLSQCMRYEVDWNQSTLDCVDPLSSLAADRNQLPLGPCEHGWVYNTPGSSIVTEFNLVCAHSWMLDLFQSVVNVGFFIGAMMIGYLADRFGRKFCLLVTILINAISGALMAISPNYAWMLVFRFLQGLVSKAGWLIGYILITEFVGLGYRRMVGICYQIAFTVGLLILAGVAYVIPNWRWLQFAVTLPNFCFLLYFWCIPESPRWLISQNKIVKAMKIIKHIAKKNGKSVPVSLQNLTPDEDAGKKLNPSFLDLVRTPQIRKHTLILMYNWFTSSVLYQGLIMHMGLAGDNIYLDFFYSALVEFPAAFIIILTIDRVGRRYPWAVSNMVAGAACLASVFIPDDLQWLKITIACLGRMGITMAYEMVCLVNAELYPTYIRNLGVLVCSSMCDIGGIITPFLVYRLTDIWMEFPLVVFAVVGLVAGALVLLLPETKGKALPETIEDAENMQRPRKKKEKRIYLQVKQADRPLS
The data set is classed as functional, cell-based, Xenopus laevis, Oocyte.

Data set [2] addresses T2, Solute carrier family 22 member 1 (Rattus norvegicus, UniProt Q63089).
T2 sequence (Q63089 whole entry): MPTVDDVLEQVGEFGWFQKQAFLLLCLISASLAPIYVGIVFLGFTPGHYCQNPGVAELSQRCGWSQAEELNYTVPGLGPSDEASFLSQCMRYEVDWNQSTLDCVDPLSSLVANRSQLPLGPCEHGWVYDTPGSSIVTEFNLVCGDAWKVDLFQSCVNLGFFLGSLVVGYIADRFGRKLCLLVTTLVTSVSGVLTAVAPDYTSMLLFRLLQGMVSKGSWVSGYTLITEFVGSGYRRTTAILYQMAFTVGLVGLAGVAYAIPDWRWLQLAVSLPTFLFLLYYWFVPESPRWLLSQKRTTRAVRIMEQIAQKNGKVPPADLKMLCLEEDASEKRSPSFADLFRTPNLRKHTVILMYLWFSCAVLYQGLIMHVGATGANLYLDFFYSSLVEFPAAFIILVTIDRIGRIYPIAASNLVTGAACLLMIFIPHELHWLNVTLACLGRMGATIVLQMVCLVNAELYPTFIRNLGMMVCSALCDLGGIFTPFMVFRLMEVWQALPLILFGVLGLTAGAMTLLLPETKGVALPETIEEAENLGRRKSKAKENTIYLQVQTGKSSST
Type of data set: functional, cell-based, Xenopus laevis, Oocyte.

In data set [3] the target is T1, Solute carrier family 22 member 2. Nature of the data set: TP_TRANSPORTER: inhibition of TEA uptake in Xenopus laevis oocytes. Type of data set: functional, cell-based, Oocyte.
For data set [4] the target is unchanged. The experiment in a line: TP_TRANSPORTER: inhibition of TEA uptake (electrogenicity) in Xenopus laevis oocytes.
Substrate in data set [5]: NCCc1c[nH]cn1
The experiment in a line: cells, lysate or membranes named.

Substrate in data set [6]: CC[N+](CC)(CC)CC
The experiment in a line: cells, lysate or membranes named.

Substrate in data set [7]: C[N+](C)(C)CCO
Nature of the data set: cells, lysate or membranes named.

Substrate in data set [8]: C[n+]1ccc(-c2ccccc2)cc1
The experiment in a line: (§1) TP_TRANSPORTER: uptake in Xenopus laevis oocytes. Type of data set: functional, cell-based, Oocyte.

Substrate in data set [9]: N=C(N)N
The data set is described as §1. The data set is classed as functional, cell-based, Oocyte.

Substrate in data set [10]: CNC(=O)c1cccnc1
The data set is described as §1. The data set is classed as functional, cell-based, Oocyte.

The term IC50 denotes the concentration that inhibits the measured activity by half. `O=C(O)CCC(=O)C(=O)O` [ALPHA-KETOGLUTARIC ACID]: the IC50 in data set [1] turned out to be 700 µM; in data set [2], 740 µM.
On to `Nc1ccc(C(=O)NCC(=O)O)cc1` [AMINOHIPPURIC ACID], for which the IC50 in [1] was 4500 µM; in data set [2], 1300 µM.
The corresponding values for `C[C@]12C[C@H](O)[C@H]3[C@@H](CCC4=CC(=O)CC[C@@]43C)[C@@H]1CC[C@@H]2C(=O)CO` [CORTICOSTERONE] are 4 µM and 151 µM.
`CC[n+]1c(CC2C=C(C)N=C(c3ccccc3)N2C)ccc2ccccc21` (stereo unspecified) [Cyanine-863]: the values for the IC50 in data set [1] and in data set [2] were 2.56 µM and 0.51 µM, respectively.
In the case of `CNCCCN1c2ccccc2CCc2ccccc21` [DESIPRAMINE], the midpoint of inhibition in data set [1], the IC50, lay at 10 µM.
On to `N=C(N)N` [GUANIDINE], for which the IC50 in data set [1] amounted to 171 µM; in data set [2], 4470 µM.
For the molecule `CC(C)C(c1ccccc1)C(O)CC[N+]1(C)CCCCC1` (stereo unspecified) [MEPIPERPHENIDOL BROMIDE], the IC50 was 474 µM in data set [1] and 7.1 µM in [2].
For `COc1cc(C(O)CNC(C)C)ccc1O` (stereo unspecified) [METIPRENALINE], in data set [2], the IC50 worked out at 37 µM.
In the case of `CCCN(CCC)S(=O)(=O)c1ccc(C(=O)O)cc1` [PROBENECID], the IC50 in [1] was 1700 µM; in data set [2] it was 1640 µM.
Take `CCN(CC)CCNC(=O)c1ccc(N)cc1` [PROCAINAMIDE]: the IC50 in data set [1] amounted to 445 µM.
Same read-out and setting: as for `C=C[C@H]1C[N@@]2CC[C@H]1C[C@@H]2[C@@H](O)c1ccnc2ccc(OC)cc12` [QUINIDINE], the figure is 14.6 µM.
What is called Ki is the equilibrium dissociation constant of an inhibitor or competing ligand from its target. Low values mean tighter binding, high ones weaker binding. In turn, `C=C[C@H]1C[N@@]2CC[C@H]1C[C@H]2[C@H](O)c1ccnc2ccc(OC)cc12` [QUININE] registered a Ki in data set [3] of 55 µM.
With `CCCC[N+](CCCC)(CCCC)CCCC` [TETRABUTHYLAMMONIUM], the Ki in data set [4] was found to be 12 µM.
`C[N+](C)(C)C` [TETRAMETHYLAMMONIUM]: half-maximal inhibition in data set [1] (IC50) required 630 µM.
In the case of `CCC[N+](CCC)(CCC)CCC` [TETRAPROPYLAMMONIUM], the IC50 in data set [1] amounted to 6.2 µM; in [2], 11.3 µM.

B1: Solute carrier family 22 member 2 (Rattus norvegicus) (protein)
chain: T1 sequence (Q9R0W2 whole entry)
For orientation: Km means the concentration of substrate that gives half-maximal velocity. As to B1, the Km in data set [5] came out at 278 µM; in [6], 91 µM; in [7] it was 604 µM; in data set [8], 17 µM; in data set [9] it was 172 µM; in data set [10], 245 µM.

B2: Solute carrier family 22 member 1 (Rattus norvegicus) (protein)
chain: T2 sequence (Q63089 whole entry)
On to B2, for which the Km was found to be 300 µM in data set [5] and 1660 µM in data set [9].
